Assay results from patent publication US10960005B2, “Treatment of relapsed and/or refractory solid tumors and non-hodgkin's lymphomas” (CELGENE QUANTICEL RESEARCH, INC., priority 2016, dated 2021).
Where two headings read alike, the source gives them in different places.

What was measured:
[1] = system: ST18 and FREM2 expression in MS-1 tumors; assay: In vivo xenograft dose-response of PD biomarker gene expression, MS-1; design: species or system mice; settings: 1, 2.5, or 5 mg/kg PO BID ×4.5; tumors 4 h after last dose
Text: Female NSG mice bearing palpable hMCC MKL-1 and MS-1 tumors were randomized into four groups of three mice each. […] The fourth group was orally administered vehicle as a control on the BID schedule. Four hours after the last dosing, tumors were collected into RNA later and stored frozen.
Total RNA was eluted in RNase-free water and analyzed by qRT-PCR.

[2] = Pharmacokinetics after single IV and oral dose, Sprague Dawley rats; type: in vivo; settings: Rat, female
Procedure: AUClast=area under the plasma concentration-time curve from time zero to time of last measurable concentration; Cmax=maximum plasma concentration; F=oral bioavailability; hr=hour, PK=pharmacokinetic; SD=standard deviation; t1/2 z=apparent half-life of the terminal phase of the concentration-time curve; tmax=time of Cmax. In mouse, PK parameters were determined using composite plasma samples obtained from n=3animals/time point. In other species, PK parameters are from n=3 animals and values shown are mean and SD (in parentheses).

[3] = QW 1.25 mg oral dose, 60-kg human, 80% oral bioavailability assumed
[4] = system: H3K4me2 at ST18 and FREM2 gene loci in MS-1 cells; assay: ChIP-seq LSD1 occupancy and H3K4me2 status, MS-1; type: cell-based, human; settings: 100 nM, 3 days
[5] = 4-week oral gavage toxicity study with 4-week recovery in dogs (QW/BIW); settings: for mean AUC0-168 / mean Cmax: 0.375 mg base/kg/dose QW; for Steady state Cmax: 0.75 mg base/kg/dose QW
[6] = system: LXFS 2156 SCLC patient-derived xenograft; assay: Efficacy in LXFS 2156 SCLC PDX model; type: in vivo, mice; settings: 5 mg base/kg orally QD×23
[7] = system: H3K4me2 at ST18 and FREM2 gene loci in MKL-1 cells; assay: ChIP-seq LSD1 occupancy and H3K4me2 status, MKL-1; type: cell-based, human; settings: 100 nM, 3 days
[8] = system: LU2514 SCLC patient-derived xenograft; assay: Efficacy in LU2514 HuPrime SCLC PDX model; type: in vivo, mice; settings: Day 28
Procedure: Tumor growth inhibition analysis was performed on Day 28 post treatment, the last day of dosing.
In both studies with LU2514 animal model.

NCI-H1417 SCLC xenograft = settings: for Median Tumor Volumes Diff.: Day 0 vs Day 65
[9] = Excretion in bile duct cannulated rats (IV); type: in vivo; settings: 24-hour period post dosing
[10] = system: LXFS 573 SCLC patient-derived xenograft; type: in vivo
[11] = Hemodynamic and ECG parameters in anesthetized guinea pigs (IV infusion); settings: for mean plasma concentration at end of infusion: 10 minutes
Procedure: The effects of Compound Aon hemodynamic and ECG parameters were examined in anesthetized, male Dunkin Hartley guinea pigs. […] An escalating dose design was utilized in which doses were administered sequentially at 20-minute intervals. Animals were monitored throughout the experiment.

[12] = 4-week toxicity study with 4-week recovery in mice; type: in vivo; settings: for AUC0-24 / Cmax: Mice
[13] = 0.375 mg base/kg/dose BIW, males, Day 22
[14] = Dogs, Day 1, 0.75 mg base/kg/dose oral once weekly, M
[15] = Dogs, Day 1, 1.5 mg base/kg/dose oral once weekly, F
[16] = Dogs, Day 1, 1.5 mg base/kg/dose oral once weekly, M
[17] = Dogs, Day 22, 0.375 mg base/kg/dose oral once weekly, F
[18] = Dogs, Day 22, 0.375 mg base/kg/dose oral once weekly, M
[19] = Dogs, Day 22, 0.375 mg base/kg/dose oral twice weekly, M
[20] = Dogs, Day 22, 0.75 mg base/kg/dose oral once weekly, F
[21] = Dogs, Day 22, 0.75 mg base/kg/dose oral once weekly, M
[22] = QW or BIW schedule, not determined
[23] = Compound A 1 mg/kg in combination with etoposide 24 mg/kg
[24] = after escalating IV doses to 20 mg base/kg
[25] = 5 mg base/kg/dose QD×5/week, females
[26] = 5 mg base/kg/dose QD×5/week, males
[27] = 25 mg base/kg/dose QOD×3/week, females
[28] = 45 mg base/kg/dose QD×5/week, females
[29] = 45 mg base/kg/dose QD×5/week, males
[30] = Day 1, 15 mg base/kg/dose oral, 5 days on/2 days off, F
[31] = Day 26, 5 mg base/kg/dose oral, 5 days on/2 days off, F
[32] = Day 26, 5 mg base/kg/dose oral, 5 days on/2 days off, M
[33] = Day 26, 15 mg base/kg/dose oral, 5 days on/2 days off, M
[34] = Day 26, 25 mg base/kg/dose oral, QOD × 3/week, F
[35] = Day 26, 25 mg base/kg/dose oral, QOD × 3/week, M
[36] = Day 26, 45 mg base/kg/dose oral, 5 days on/2 days off, F
[37] = Day 26, 45 mg base/kg/dose oral, 5 days on/2 days off, M

COc1ccc(-c2c(-c3ccc(C#N)c(F)c3)nc(N3CCC(N)CC3)n(C)c2=O)cc1F [Compound A]
ST18 and FREM2 change in gene expression in vivo [1]: ≥ 2 fold | AUC∞ ([2]; single IV 5 mg base/kg): 733 ng·h/mL | CL ([2]; single IV 5 mg base/kg): 115 mL/min/kg | Vss ([2]; single IV 5 mg base/kg): 262.50 mL/kg | t1/2,z ([2]; single IV 5 mg base/kg): 3.6 h | % F ([2]; single oral 5 mg base/kg): 33% | AUClast ([2]; single oral 5 mg base/kg): 222 ng·h/mL | Cmax ([2]; single oral 5 mg base/kg): 47 ng/mL | t1/2,z ([2]; single oral 5 mg base/kg): 3.0 h | tmax ([2]; single oral 5 mg base/kg): 2.0 h | % F ([2]; single oral 15 mg base/kg): 28% | AUClast ([2]; single oral 15 mg base/kg): 570 ng·h/mL | Cmax ([2]; single oral 15 mg base/kg): 123 ng/mL | t1/2,z ([2]; single oral 15 mg base/kg): 2.9 h | tmax ([2]; single oral 15 mg base/kg): 2.0 h | % F ([2]; single oral 50 mg base/kg): 74% | AUClast ([2]; single oral 50 mg base/kg): 4652 ng·h/mL | Cmax ([2]; single oral 50 mg base/kg): 621 ng/mL | t1/2,z ([2]; single oral 50 mg base/kg): 3.0 h | tmax ([2]; single oral 50 mg base/kg): 6.0 h | predicted steady state systemic exposure (AUCt) [3]: 29 ng·h/mL | H3K4me2 at the LSD1 binding site of ST18 gene [4]: increased H3K4me2 | Cmax ([5]; 0.375 mg base/kg/dose BIW, females, Day 22): 19.0 ng/mL | Cmax [5, 13]: 17.7 ng/mL | mean AUC0-72 [5, 13]: 307 ng·h/mL | mean AUC0-168 ([5]; females, Day 22): 269 ng·h/mL | mean Cmax ([5]; females, Day 22): 15.5 ng/mL | mean AUC0-168 ([5]; males, Day 22): 384 ng·h/mL | mean Cmax ([5]; males, Day 22): 21.9 ng/mL | Steady state Cmax ([5]; females): 40.8 ng/mL | Steady state Cmax ([5]; males): 36.2 ng/mL | AUC0-168 ([5]; Dogs, Day 1, 0.375 mg base/kg/dose oral once weekly, M): 503 ng·h/mL | AUC0-72 ([5]; Dogs, Day 1, 0.375 mg base/kg/dose oral twice weekly, M): 420 ng·h/mL | AUC0-168 ([5]; Dogs, Day 1, 0.75 mg base/kg/dose oral once weekly, F): 1180 ng·h/mL | AUC0-168 [5, 14]: 955 ng·h/mL | Cmax [5, 14]: 34 ng/mL | AUC0-168 [5, 15]: 2680 ng·h/mL | Cmax [5, 15]: 80.0 ng/mL | AUC0-168 [5, 16]: 2530 ng·h/mL | Cmax [5, 16]: 90.6 ng/mL | AUC0-168 [5, 17]: 269 ng·h/mL | Cmax [5, 17]: 15.5 ng/mL | AUC0-168 [5, 18]: 384 ng·h/mL | Cmax [5, 18]: 21.9 ng/mL | Cmax ([5]; Dogs, Day 22, 0.375 mg base/kg/dose oral twice weekly, F): 19.0 ng/mL | AUC0-72 [5, 19]: 307 ng·h/mL | Cmax [5, 19]: 17.7 ng/mL | AUC0-168 [5, 20]: 719 ng·h/mL | Cmax [5, 20]: 40.8 ng/mL | AUC0-168 [5, 21]: 645 ng·h/mL | Cmax [5, 21]: 36.2 ng/mL | HNSTD [5, 22]: < 0.375 mg base/kg/dose | NOAEL [5, 22]: < 0.375 mg base/kg/dose | moribund euthanasia ([5]; weekly oral 0.375-1.5 mg base/kg/dose, between study Days 13 and 23): 11 animals | primary toxicities ([5]; ≥0.375 mg base/kg/dose, QW or BIW): mucosal ulceration, acute and/or subacute inflammation, and mucosal epithelial atrophy ofGI tract tissues | TGI [6]: −7% | H3K4me2 at the LSD1 binding site of FREM2 gene [7]: increased H3K4me2 | H3K4me2 at the LSD1 binding site of ST18 gene [7]: increased H3K4me2 | % TGI ([8]; 5 mg base/kg PO QD × 28): 43% | % TGI ([8]; 10 mg base/kg PO QD × 28): 61% | mean body weight gain by end of study (NCI-H1417 SCLC xenograft; 2.5 mg base/kg): 1% | Median Tumor Volumes Diff. (NCI-H1417 SCLC xenograft; 2.5 mg base/kg PO QD × 65): 69.9 mm^3 | mean body weight gain by end of study (NCI-H1417 SCLC xenograft; 5 mg base/kg): 7.5% | Median Tumor Volumes Diff. (NCI-H1417 SCLC xenograft; 5 mg base/kg PO QD × 65): 92.3 mm^3 | dose excreted intact in urine [9]: 8.5 % of dose | % TGD [10, 23]: 38% | TGD [10, 23]: 16 days | median TTE [10, 23]: 59 days | survivors on Day 133 ([10]; Compound A 1 mg/kg in combination with etoposide 24 mg/kg, of eight): 1 | TGD ([10]; Compound A 2.5 mg/kg in combination with etoposide 24 mg/kg): 79 days | survivors on Day 133 ([10]; Compound A 2.5 mg/kg in combination with etoposide 24 mg/kg, of eight): 3 | TGD ([10]; Compound A 5 mg/kg in combination with etoposide 24 mg/kg): 91 days | survivors on Day 133 ([10]; Compound A 5 mg/kg in combination with etoposide 24 mg/kg, of eight): 8 | study survivors on Day 133 ([10]; Compound A monotherapy 5 mg/kg, of eight): seven | mean plasma concentration at end of infusion ([11]; 15 mg base/kg IV): 4269 ng/mL | mean plasma concentration at end of infusion ([11]; 20 mg base/kg IV): 6707 ng/mL | maximum decrease in HR vs vehicle ([11]; 20 mg base/kg IV, 9 minutes into 10-minute infusion): 19% | decrease in heart rate at end of monitoring period [11, 24]: 18% | increase of QTcB interval at end of monitoring period [11, 24]: 10% | mean steady state AUC0-24 [12, 25]: 2,410 ng·hr/mL | mean steady state Cmax [12, 25]: 276 ng/mL | mean steady state AUC0-24 [12, 26]: 2,010 ng·hr/mL | mean steady state Cmax [12, 26]: 276 ng/mL | mean steady state AUC0-24 [12, 27]: 17,500 ng·hr/mL | mean steady state Cmax [12, 27]: 1,740 ng/mL | mean steady state Cmax ([12]; 25 mg base/kg/dose QOD×3/week, males): 1,450 ng/mL | animals sacrificed in moribund condition ([12]; 45 mg base/kg/dose QD×5/week, 4 males and 1 female, TK subgroup): Five | mean steady state AUC0-24 [12, 28]: 26,500 ng·hr/mL | mean steady state Cmax [12, 28]: 2,130 ng/mL | mean steady state AUC0-24 [12, 29]: 29,000 ng·hr/mL | mean steady state Cmax [12, 29]: 2,620 ng/mL | AUC0-24 ([12]; Day 1, 5 mg base/kg/dose oral, 5 days on/2 days off, F): 1500 ng·h/mL | Cmax ([12]; Day 1, 5 mg base/kg/dose oral, 5 days on/2 days off, M): 230 ng/mL | AUC0-24 [12, 30]: 9680 ng·h/mL | Cmax [12, 30]: 850 ng/mL | AUC0-24 ([12]; Day 1, 15 mg base/kg/dose oral, 5 days on/2 days off, M): 13000 ng·h/mL | AUC0-24 [12, 31]: 2410 ng·h/mL | Cmax [12, 31]: 276 ng/mL | AUC0-24 [12, 32]: 2010 ng·h/mL | Cmax [12, 32]: 275 ng/mL | AUC0-24 [12, 33]: 7960 ng·h/mL | Cmax [12, 33]: 628 ng/mL | AUC0-24 [12, 34]: 17500 ng·h/mL | Cmax [12, 34]: 1740 ng/mL | AUC0-24 [12, 35]: 17800 ng·h/mL | Cmax [12, 35]: 1450 ng/mL | AUC0-24 [12, 36]: 26500 ng·h/mL | Cmax [12, 36]: 2130 ng/mL | AUC0-24 [12, 37]: 29000 ng·h/mL | Cmax [12, 37]: 2620 ng/mL | STD10 ([12]; QD ×5/week schedule): ≥ 45 mg base/kg/dose
